Results published in patent publication US8466176B2 (priority 2008, dated 2013).

Assay: logP(HCOOH) reported with HPLC/MS
[1] = method [b]: LC-MS at pH 2.7, 0.1% formic acid in water and acetonitrile, linear gradient 10% to 95% acetonitrile
[2] = formic acid (HCOOH), logP(HCOOH), HPLC/MS
[3] = reversed phase HPLC column, pH 2.7, log p, method [b]: LC-MS at pH 2.7, 0.1% formic acid in water and acetonitrile, linear gradient 10% to 95% acetonitrile
[4] = HCOOH (formic acid), logP(HCOOH), HPLC/MS
[5] = method [b]: LC-MS, pH 2.7 with 0.1% formic acid in water and acetonitrile (0.1% formic acid), linear gradient 10% to 95% acetonitrile
[6] = method [a]: HPLC on reversed phase columns, pH 2.3 with 0.1% phosphoric acid and acetonitrile as eluent
[7] = reversed phase HPLC column, pH 2.7, log p, method [b]: LC-MS, pH 2.7 with 0.1% formic acid in water and acetonitrile (0.1% formic acid), linear gradient 10% to 95% acetonitrile

Compound | log p [1] | log p [5] | other results
CCCCCN(C)C(=O)c1cccc(CON=C(c2ccccc2)c2nnnn2C)n1 [Example 85] | 3.29^[b] |  | 
Cn1nnnc1C(=NOCc1cccc(C(=O)NC(C)(C)C)n1)c1ccccc1 [Example 86] | 3.37^[b] |  | 
Cn1nnnc1C(=NOCc1nc(Br)ccc1F)c1ccccc1 [Example 96, N-[(6-bromo-3-fluoro-pyridin-2-yl)methoxy]-1-(1-methyl-1H-tetrazol-5-yl)-1-phenylmethanimine] |  |  | chromatographic logP [2]: 3.27; chromatographic logP [3]: 3.27
Cn1nnnc1C(=NOCc1nc(C#CCC2CCCCC2)ccc1F)c1ccccc1 [Example 97] | 5.28^[b] |  | 
Cn1nnnc1C(=NOCc1nc(C#CCC2CCCC2)ccc1F)c1ccccc1 [Example 98] | 4.92^[b] |  | 
Cn1nnnc1C(=NOCc1nc(C#CCc2ccccc2)ccc1F)c1ccccc1 [Example 100] | 4.24^[b] |  | 
CC(C)CCC#Cc1ccc(F)c(CON=C(c2ccccc2)c2nnnn2C)n1 [Example 101] | 3.13^[b] |  | 
CCSCC#Cc1ccc(F)c(CON=C(c2ccccc2)c2nnnn2C)n1 [Example 102] | 3.85^[b] |  | 
Cn1nnnc1C(=NOCc1nc(C#CCCCC#N)ccc1F)c1ccccc1 [Example 103] | 3.11^[b] |  | 
Cn1nnnc1C(=NOCc1nc(C#CCCCc2ccccc2)ccc1F)c1ccccc1 [Example 104] | 4.84^[b] |  | 
Cn1nnnc1C(=NOCc1nc(C#CCCCCl)ccc1F)c1ccccc1 [Example 105] | 3.87^[b] |  | 
Cn1nnnc1C(=NOCc1nc(C#CCOc2ccccc2)ccc1F)c1ccccc1 [Example 106] | 4.04^[b] |  | 
Cn1nnnc1C(=NOCc1nc(C#CCCC2CCCCC2)ccc1F)c1ccccc1 [Example 107] | 5.68^[b] |  | 
Cn1nnnc1C(=NOCc1nc(C#CC2CCCCC2)ccc1F)c1ccccc1 [Example 108] | 4.92^[b] |  | 
Cn1nnnc1C(=NOCc1cccc(C#CC2CC2)n1)c1ccccc1 [Example 109] | 3.46^[b] |  | 
Cn1nnnc1C(=NOCc1cccc(C#CCn2ccc(C(F)(F)F)n2)n1)c1ccccc1 [Example 110] | 3.62^[b] |  | 
Cn1nnnc1C(=NOCc1cccc(C#CCC2CCC2)n1)c1ccccc1 [Example 111] | 4.39^[b] |  | 
Cn1nnnc1C(=NOCc1cccc(C#CCc2cccc(F)c2)n1)c1ccccc1 [Example 112] | 4.16^[b] |  | 
CCCC#Cc1nc(CON=C(c2ccccc2)c2nnnn2C)c(Cl)s1 [Example 115] | 4.75^[b] |  | 
Cn1nnnc1C(=NOCc1nc(C#CC2CCCC2)sc1Cl)c1ccccc1 [Example 116] | 5.31^[b] |  | 
CCCCC#Cc1nc(CON=C(c2ccccc2)c2nnnn2C)c(Cl)s1 [Example 117] | 5.22^[b] |  | 
CC(C)CCC#Cc1nc(CON=C(c2ccccc2)c2nnnn2C)c(Cl)s1 [Example 118] | 5.59^[b] |  | 
Cn1nnnc1C(=NOCc1nc(C#CCOc2ccccc2)sc1Cl)c1ccccc1 [Example 119] | 4.62^[b] |  | 
Cn1nnnc1C(=NOCc1nc(C#CC2CCCCC2)sc1Cl)c1ccccc1 [Example 120] | 5.75^[b] |  | 

Compound | log p [1] | log p [5] | other results
Cn1nnnc1C(=NOCc1nc(C#CCCCCl)sc1Cl)c1ccccc1 [Example 121] | 4.51^[b] |  | 
Cn1nnnc1C(=NOCc1nc(C#CCCCC#N)sc1Cl)c1ccccc1 [Example 122] | 3.58^[b] |  | 
Cn1nnnc1C(=NOCc1nc(C#CCCCc2ccccc2)sc1Cl)c1ccccc1 [Example 123] | 5.56^[b] |  | 
Cn1nnnc1C(=NOCc1cccc(C#CC2=CCCCC2)n1)c1ccccc1 [Example 124] | 4.34^[b] |  | 
COc1ccc(CON=C(c2ccccc2)c2nnnn2C)nc1Br [Example 125, N-[(6-bromo-5-methoxypyridin-2-yl)methoxy]-1-(1-methyl-1H-tetrazol-5-yl)-1-phenylmethanimine] |  |  | chromatographic logP [4]: 3.13; chromatographic logP [3]: 3.13
CCCCC#Cc1nc(CON=C(c2ccccc2)c2nnnn2C)ccc1OC [Example 127] | 3.96^[b] |  | 
COc1ccc(CON=C(c2ccccc2)c2nnnn2C)nc1C#CCC1CCCC1 [Example 128] | 4.46^[b] |  | 
COc1ccc(CON=C(c2ccccc2)c2nnnn2C)nc1C#CCC1CCCCC1 [Example 129] | 4.84^[b] |  | 
COc1ccc(CON=C(c2ccccc2)c2nnnn2C)nc1C#CCCCc1ccccc1 [Example 130] | 4.44^[b] |  | 
COc1ccc(CON=C(c2ccccc2)c2nnnn2C)nc1C#CCOc1ccccc1 [Example 131] | 3.8^[b] |  | 
COc1ccc(CON=C(c2ccccc2)c2nnnn2C)nc1C#CC1CCCCC1 [Example 132] |  | 4.44^[b] | 
COc1ccc(CON=C(c2ccccc2)c2nnnn2C)nc1C#CC(C)(C)C [Example 133] |  | 3.92^[b] | 
CCc1ccc(C#Cc2nc(CON=C(c3ccccc3)c3nnnn3C)ccc2OC)cc1 [Example 134] |  | 4.56^[b] | 
COc1ccc(CON=C(c2ccccc2)c2nnnn2C)nc1C#CCCCC#N [Example 135] |  | 2.82^[b] | 
COC=CC#Cc1nc(CON=C(c2ccccc2)c2nnnn2C)cs1 [Example 136] |  |  | log p [6]: 3.06^[a]
CC(=O)OCCCC#Cc1nc(CON=C(c2ccccc2)c2nnnn2C)cs1 [Example 137] |  |  | log p [6]: 3.17^[a]
Cn1nnnc1C(=NOCc1csc(C#C[Si](C)(C)C)n1)c1ccccc1 [Example 138] |  |  | log p [6]: 4.59^[a]
C#Cc1nc(CON=C(c2ccccc2)c2nnnn2C)cs1 [Example 139] |  |  | log p [6]: 2.77^[a]
Cn1nnnc1C(=NOCc1cccc(N(CCC2CC(F)(F)C2(F)F)C(=O)OC(C)(C)C)n1)c1ccccc1 (centres unmarked) [Example 140] |  |  | log p [6]: 5.05^[a]
Cn1nnnc1C(=NOCc1cccc(N(CCC2CCCCC2)C(=O)OC(C)(C)C)n1)c1ccccc1 [Example 141, tert-butyl (2-cyclohexylethyl){6-[({[(1-methyl-1H-tetrazol-5-yl)(phenyl)methylene]amino}oxy)methyl]pyridin-2-yl}carbamate] |  |  | chromatographic logP [4]: 6.56; chromatographic logP (reversed phase HPLC columns, pH 2.3, log p, method [a]: HPLC on reversed phase columns, pH 2.3 with 0.1% phosphoric acid and acetonitrile as eluent): 6.56
Cn1nnnc1C(=NOCc1cccc(N(CC2CC2)C(=O)OC(C)(C)C)n1)c1ccccc1 [Example 142] |  |  | log p [6]: 4.7^[a]
Cn1nnnc1C(=NOCc1cccc(NCCC2CC(F)(F)C2(F)F)n1)c1ccccc1 (centres unmarked) [Example 143] |  |  | log p [6]: 2.51^[a]
Cn1nnnc1C(=NOCc1cccc(NCC2CC2)n1)c1ccccc1 [Example 144] |  |  | log p [6]: 1.75^[a]
Cc1nnnn1C(=NOCc1csc(Br)n1)c1ccccc1 [Example 145, N-[(2-bromo-1,3-thiazol-4-yl)methoxy]-1-(5-methyl-1H-tetrazol-1-yl)-1-phenylmethanimine] |  |  | chromatographic logP (HPLC, logP(HCOOH), HPLC/MS): 3.15; chromatographic logP [7]: 3.15

Compound | log p [1] | log p [5] | other results
Cn1nnnc1C(=NOCc1csc(Br)n1)c1cccc(F)c1 [Example 146] |  | 3.23^[b] | 
Cn1nnnc1C(=NOCc1csc(C#CCC2CCCCC2)n1)c1cccc(F)c1 [Example 147] |  | 5.42^[b] | 
Cn1nnnc1C(=NOCc1csc(C#CC2CC2)n1)c1cccc(F)c1 [Example 148] |  | 3.71^[b] | 
CCCCC#Cc1nc(CON=C(c2cccc(F)c2)c2nnnn2C)cs1 [Example 149] |  | 4.51^[b] | 
Cn1nnnc1C(=NOCc1csc(C#CCCCc2ccccc2)n1)c1cccc(F)c1 [Example 150] |  | 4.89^[b] | 
CCCC#Cc1nc(CON=C(c2cccc(F)c2)c2nnnn2C)cs1 [Example 151] |  | 4.09^[b] | 
CCCCCC#Cc1nc(CON=C(c2cccc(F)c2)c2nnnn2C)cs1 [Example 152] |  | 4.94^[b] | 
Cn1nnnc1C(=NOCc1csc(C#CCC2CCCC2)n1)c1cccc(F)c1 [Example 153] |  | 5.03^[b] | 
Cn1nnnc1C(=NOCc1csc(C#CCCCC#N)n1)c1cccc(F)c1 [Example 154] |  | 3.09^[b] | 
Cn1nnnc1C(=NOCc1csc(C#CCCc2ccccc2)n1)c1cccc(F)c1 [Example 156] |  | 4.49^[b] | 
C#Cc1nc(CON=C(c2cccc(F)c2)c2nnnn2C)cs1 [Example 157] |  | 2.88^[b] | 
Cn1nnnc1C(=NOCc1cccc(NC/C=C/C#CC(C)(C)C)n1)c1ccccc1 [Example 158] |  |  | log p [6]: 3.25^[a]
Cc1nnnn1C(=NOCc1csc(C#CC2CC2)n1)c1ccccc1 [Example 159] |  |  | chromatographic logP (logP(HCOOH), HPLC/MS): 3.65; chromatographic logP [7]: 3.65
Cn1nnnc1C(=NOCc1csc(NCCC2CCCCC2)n1)c1ccccc1 [Example 161, N-(2-cyclohexylethyl)-4-[({[(1-methyl-1H-tetrazol-5-yl)(phenyl)methylene]amino}oxy)methyl]-1,3-thiazol-2-amine] |  |  | chromatographic logP [2]: 3.62; chromatographic logP [7]: 3.62
Cn1nnnc1C(=NOCc1csc(NCC2CC2)n1)c1ccccc1 [Example 162] |  | 2.26^[b] | 
CCCCC#Cc1nc(CON=C(c2ccccc2)n2nnnc2C)cs1 [Example 164] |  | 4.49^[b] | 
CCCC#Cc1nc(CON=C(c2ccccc2)n2nnnc2C)cs1 [Example 165] |  | 4.04^[b] | 
Cc1nnnn1C(=NOCc1csc(C#CCCCc2ccccc2)n1)c1ccccc1 [Example 166] |  | 4.84^[b] | 
CCCCCC#Cc1nc(CON=C(c2ccccc2)n2nnnc2C)cs1 [Example 167] |  | 4.92^[b] | 
Cc1nnnn1C(=NOCc1csc(C#CCCc2ccccc2)n1)c1ccccc1 [Example 168] |  | 4.44^[b] | 
Cc1nnnn1C(=NOCc1csc(C#CCC2CCCCC2)n1)c1ccccc1 [Example 169] |  | 5.41^[b] | 
Cc1nnnn1C(=NOCc1csc(C#CCC2CCCC2)n1)c1ccccc1 [Example 170] |  | 4.97^[b] | 
Cc1nnnn1C(=NOCc1csc(C#CCCCC#N)n1)c1ccccc1 [Example 171] |  | 3.02^[b] | 
